Patent publication US4673562A, “Bisamide bisthiol compounds useful for making technetium radiodiagnostic renal agents” (The Children's Medical Center Corporation, priority 1983, dated 1987)
“And” between values parts separate entries of the source, which are not always exact repeats. Equal values may be shown once. Blank lines part the entries; values can stand above or below the compound they belong to.

Key:
[1] = in vivo; cited from earlier work
[2] = Gamma camera: % total dose in bladder, 99mTc complexes coinjected with 131I-OIH into normal dogs (Tables I, III); format: in vivo, dog; conditions: Table III, 35 min, coinjected with the 99mTc complex of the line
Description: The two fractions collected from the products of synthesis in each case were denoted (XVIA), (XVIB), (XXXIA), and (XXXIB), respectively.
Images were recorded at 1, 5, 10, 15, 20, 25, 30 and 35 minutes after administration. The initial image at one minute was used to collect 750,000 counts. All subsequent images were exposed for the same length of time as this first image, and the number of counts noted. […] In this way, the counts collected in the camera images cound be related to absolute activity levels (mCi or μCi). The animals were then observed until the urine samples were free of ^99m Tc.
The values represent the calculated % total dose in the camera region of interest set over the bladder.

[3] = Biodistribution in Swiss Webster albino male mice, coinjected with 131I-OIH (Tables IV, V); format: in vivo, mouse
Description: The diastereomers (XVIA) and (XVIB) were synthesized and then isolated by high pressure liquid chromatography as described previously, and their biodistributions obtained in groups in six Swiss Webster albino male mice. […] The mice were then placed in metabolic cages to collect urine. At 10 and 120 minutes after injection, the penis was ligated, the mice killed with chloroform vapor, and the organs disected.

[4] = cited from earlier work
[5] = Solubility of bisthiol compound; format: physicochemical
[6] = Table IV, 10 min, XVI A and 131I-OIH coinjected
[7] = Table IV, 120 min, XVI A and 131I-OIH coinjected
[8] = Table V, 10 min, XVI B and 131I-OIH coinjected
[9] = Table V, 120 min, XVI B and 131I-OIH coinjected

Structure (SMILES): O=C1C[S][Tc-]23(=[O])[S]CC(=O)[N]2CC[N]13 [[TcO(ema)]-]
excretion route and metabolic state [1]: excreted into both the urine and bile in a chemically unchanged form

Blood, % total dose per organ ± s.d. [3, 6]: 2.80 ± 0.24 % total dose per organ | Intestine, % total dose per organ ± s.d. [3, 6]: 1.15 ± 0.23 % total dose per organ | Kidneys, % total dose per organ ± s.d. [3, 6]: 2.18 ± 0.29 % total dose per organ | Liver, % total dose per organ ± s.d. [3, 6]: 1.36 ± 0.24 % total dose per organ | Stomach, % total dose per organ ± s.d. [3, 6]: 0.36 ± 0.10 % total dose per organ | Urine, % total dose ± s.d. [3, 6]: 64.80 ± 7.31 % total dose per organ | Blood, % total dose per organ ± s.d. [3, 7]: 0.22 ± 0.04 % total dose per organ | Intestine, % total dose per organ ± s.d. [3, 7]: 0.45 ± 0.19 % total dose per organ | Kidneys, % total dose per organ ± s.d. [3, 7]: 0.01 ± 0.06 % total dose per organ | Liver, % total dose per organ ± s.d. [3, 7]: 0.14 ± 0.03 % total dose per organ | Stomach, % total dose per organ ± s.d. [3, 7]: 0.60 ± 0.19 % total dose per organ | Urine, % total dose ± s.d. [3, 7]: 89.86 ± 3.03 % total dose per organ | Blood, % total dose per organ ± s.d. [3, 8]: 2.11 ± 0.62 % total dose per organ | Intestine, % total dose per organ ± s.d. [3, 8]: 0.91 ± 0.27 % total dose per organ | Kidneys, % total dose per organ ± s.d. [3, 8]: 3.09 ± 3.36 % total dose per organ | Liver, % total dose per organ ± s.d. [3, 8]: 1.20 ± 0.41 % total dose per organ | Stomach, % total dose per organ ± s.d. [3, 8]: 0.42 ± 0.63 % total dose per organ | Urine, % total dose ± s.d. [3, 8]: 78.86 ± 5.1 % total dose per organ | Blood, % total dose per organ ± s.d. [3, 9]: 0.19 ± 0.08 % total dose per organ | Intestine, % total dose per organ ± s.d. [3, 9]: 0.24 ± 0.04 % total dose per organ | Kidneys, % total dose per organ ± s.d. [3, 9]: 0.05 ± 0.04 % total dose per organ | Liver, % total dose per organ ± s.d. [3, 9]: 0.10 ± 0.04 % total dose per organ | Stomach, % total dose per organ ± s.d. [3, 9]: 0.71 ± 0.27 % total dose per organ | Urine, % total dose ± s.d. [3, 9]: 93.25 ± 0.89 % total dose per organ
Structure (SMILES): O=C(O)CNC(=O)c1ccccc1[131I] [Compound 131I-OIH, ^131 I-ortho-iodohippurate, reference compound]
% total dose in bladder at 35 minutes, Average 131I (± s.d) ([2]; average of dogs): 73.60 % total dose and 72.02 % total dose and 76.69 % total dose and 80.87 % total dose | % total dose in bladder at 35 minutes, 131I ([2]; single dogs): 73.14 % total dose and 77.31 % total dose and 70.39 % total dose and 61.75 % total dose and 77.21 % total dose and 77.10 % total dose and 74.35 % total dose and 82.53 % total dose and 73.20 % total dose and 87.52 % total dose and 75.71 % total dose and 79.39 % total dose | time to maximum uptake in normal kidneys ([4]; bolus injection): within the first five minutes | clearance relative to PAH ([4]; in vivo): lower clearance than PAH | injected dose found in the urine ([4]; normally hydrated patient, at thirty minutes, 30 min): approximately 70% | clearance from the renal parenchyma and collecting system ([4]; normally hydrated patient, bolus injection): within thirty minutes

Structure (SMILES): Nc1ccc(C(=O)NCC(=O)O)cc1 [PAH, Paraaminohippuric acid]
elimination by glomerular filtration ([4]; kidneys): 20% | elimination by tubular secretion ([4]; kidneys): 80% | renal plasma flow as measured by PAH ([4]; normal adult): about 575 ml/minute | extraction by the normal kidney ([4]; normal kidney): 90%

Structure (SMILES): O=C(NCCS)C(=O)NCCS [XXXII, N, N'-bis(2-mercaptoethyl)oxamide]
solubility [5]: soluble only in DMSO, trifluoroacetic acid and aqueous alkali

Structure (SMILES): O=C(O)Cn1cc(I)c(=O)c(I)c1 [iodo-pyracet]
removal from circulation by the liver ([4]; in vivo): partial removal from the circulation by the liver
